From ChEMBL document CHEMBL5696442, “Discovery of type II inhibitors of TGFβ-activated kinase 1 (TAK1) and mitogen-activated protein kinase kinase kinase kinase 2 (MAP4K2)” (J Med Chem, 2015)
The source made the active and inactive calls. The calls are words filed in the database; no cut-off is given here.

Key:
[1] = system: Receptor-type tyrosine-protein kinase FLT3 (Homo sapiens), P36888 [D835Y]; assay: Inhibition of FLT3 D835Y mutant (unknown origin) at 10 uM by Ambit Kinomescan binding assay relative to control
[2] = target: cGMP-dependent protein kinase 1 (Homo sapiens) (UniProt Q13976); assay: Inhibition of PRKG1 (unknown origin) at 10 uM by Ambit Kinomescan binding assay
[3] = target: Calcium/calmodulin-dependent protein kinase type II subunit delta (Homo sapiens) (UniProt Q13557); assay: Inhibition of CaMK2d Lys1 labeling site in human A-375 cells at 5 uM by KiNativ Profiling analysis relative to control; assay type: cell-based
[4] = target: T1, Serine/threonine-protein kinase greatwall (Homo sapiens) (UniProt Q96GX5); assay: Inhibition of MASTL ATP labeling site in human Huh-7 cells at 10 uM by KiNativ Profiling analysis relative to control; assay type: cell-based
T1 sequence (whole entry): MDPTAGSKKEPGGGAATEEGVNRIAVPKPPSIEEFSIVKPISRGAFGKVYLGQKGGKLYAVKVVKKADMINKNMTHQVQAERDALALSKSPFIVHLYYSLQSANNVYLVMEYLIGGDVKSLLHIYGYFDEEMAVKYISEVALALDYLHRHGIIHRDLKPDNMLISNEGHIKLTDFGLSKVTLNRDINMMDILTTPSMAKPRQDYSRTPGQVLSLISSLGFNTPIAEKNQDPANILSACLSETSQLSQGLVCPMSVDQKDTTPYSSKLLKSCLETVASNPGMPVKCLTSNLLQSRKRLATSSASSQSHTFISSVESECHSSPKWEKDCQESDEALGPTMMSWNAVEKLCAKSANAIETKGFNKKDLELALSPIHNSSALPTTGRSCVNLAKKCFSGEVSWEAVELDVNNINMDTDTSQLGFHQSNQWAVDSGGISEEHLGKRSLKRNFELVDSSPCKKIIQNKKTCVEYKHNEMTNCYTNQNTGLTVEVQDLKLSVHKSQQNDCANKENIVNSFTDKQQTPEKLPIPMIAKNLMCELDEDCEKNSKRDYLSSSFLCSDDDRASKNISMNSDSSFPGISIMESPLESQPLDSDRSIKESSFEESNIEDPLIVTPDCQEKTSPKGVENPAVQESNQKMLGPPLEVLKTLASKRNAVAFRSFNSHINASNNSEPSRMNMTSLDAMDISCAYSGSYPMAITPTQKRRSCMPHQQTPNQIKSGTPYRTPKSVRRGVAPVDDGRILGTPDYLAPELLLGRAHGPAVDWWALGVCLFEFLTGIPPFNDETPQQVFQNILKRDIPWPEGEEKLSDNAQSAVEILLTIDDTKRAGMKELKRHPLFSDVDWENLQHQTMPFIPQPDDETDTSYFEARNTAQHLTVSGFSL

[5] = target: T2, Serine/threonine-protein kinase ULK3 (Homo sapiens) (UniProt Q6PHR2); assay: Inhibition of ULK3 K1 labeling site in human Huh-7 cells at 10 uM by KiNativ Profiling analysis relative to control; assay type: cell-based
T2 sequence (whole entry): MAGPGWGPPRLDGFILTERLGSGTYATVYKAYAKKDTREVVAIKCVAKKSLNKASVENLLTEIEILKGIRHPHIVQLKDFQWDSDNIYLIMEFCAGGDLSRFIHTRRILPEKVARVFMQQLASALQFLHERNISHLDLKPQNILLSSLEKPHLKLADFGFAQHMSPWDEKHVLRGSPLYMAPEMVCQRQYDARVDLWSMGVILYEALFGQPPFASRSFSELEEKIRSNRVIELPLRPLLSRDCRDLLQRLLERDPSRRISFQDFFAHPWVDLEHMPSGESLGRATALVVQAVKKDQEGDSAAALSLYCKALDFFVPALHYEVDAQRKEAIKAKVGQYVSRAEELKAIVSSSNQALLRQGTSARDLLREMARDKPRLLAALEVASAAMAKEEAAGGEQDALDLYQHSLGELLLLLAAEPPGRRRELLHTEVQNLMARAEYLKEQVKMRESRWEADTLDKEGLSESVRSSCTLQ

[6] = target: Casein kinase I isoform alpha (Homo sapiens) (UniProt P48729); assay: Inhibition of CK1 alpha K2 labeling site in human Huh-7 cells at 1 uM by KiNativ Profiling analysis relative to control; assay type: cell-based
[7] = target: ALK tyrosine kinase receptor (Homo sapiens) (UniProt Q9UM73); assay: Inhibition of ALK (unknown origin) at 10 uM by Ambit Kinomescan binding assay relative to control; values are per cent of control
[8] = target: Serine/threonine-protein kinase TNNI3K (Homo sapiens) (UniProt Q59H18); assay: Inhibition of TNNI3K (unknown origin) at 10 uM by Ambit Kinomescan binding assay relative to control; values are per cent of control
[9] = target: Membrane-associated tyrosine- and threonine-specific cdc2-inhibitory kinase (Homo sapiens) (UniProt Q99640); assay: Inhibition of PKMYT1 (unknown origin) at 1 uM by Ambit Kinomescan binding assay relative to control
[10] = target: MAP/microtubule affinity-regulating kinase 3 (Homo sapiens) (UniProt P27448); assay: Inhibition of MARK3 Lys1 labeling site in human A-375 cells at 0.5 uM by KiNativ Profiling analysis relative to control; assay type: cell-based
[11] = target: Tyrosine-protein kinase Lyn (Homo sapiens, UniProt P07948); assay: Inhibition of LYN (unknown origin) at 1 uM by Ambit Kinomescan binding assay relative to control; values are per cent of control
[12] = target: T3, Dual specificity mitogen-activated protein kinase kinase 4 (Homo sapiens) (UniProt P45985); assay: Inhibition of MEK4 (unknown origin) at 1 uM by Ambit Kinomescan binding assay relative to control; values are per cent of control
T3 sequence (whole entry): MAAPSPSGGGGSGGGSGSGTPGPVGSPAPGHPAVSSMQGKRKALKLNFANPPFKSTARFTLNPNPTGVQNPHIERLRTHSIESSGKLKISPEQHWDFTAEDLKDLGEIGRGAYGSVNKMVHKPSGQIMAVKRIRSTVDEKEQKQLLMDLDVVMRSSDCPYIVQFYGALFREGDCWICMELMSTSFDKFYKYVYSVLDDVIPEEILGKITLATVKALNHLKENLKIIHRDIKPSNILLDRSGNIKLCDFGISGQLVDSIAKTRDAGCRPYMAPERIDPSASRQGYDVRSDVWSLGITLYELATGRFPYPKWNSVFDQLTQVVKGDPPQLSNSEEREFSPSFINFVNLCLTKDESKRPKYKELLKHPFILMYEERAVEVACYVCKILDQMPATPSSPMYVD

[13] = target: Calcium/calmodulin-dependent protein kinase type II subunit beta (Homo sapiens) (UniProt Q13554); assay: Inhibition of CaMK2b Lys2 labeling site in human Huh-7 cell lysate at 1 uM by KiNativ Profiling analysis relative to control; assay type: subcellular
Sequence of Calcium/calmodulin-dependent protein kinase type II subunit beta (Homo sapiens) (Q13554 whole entry): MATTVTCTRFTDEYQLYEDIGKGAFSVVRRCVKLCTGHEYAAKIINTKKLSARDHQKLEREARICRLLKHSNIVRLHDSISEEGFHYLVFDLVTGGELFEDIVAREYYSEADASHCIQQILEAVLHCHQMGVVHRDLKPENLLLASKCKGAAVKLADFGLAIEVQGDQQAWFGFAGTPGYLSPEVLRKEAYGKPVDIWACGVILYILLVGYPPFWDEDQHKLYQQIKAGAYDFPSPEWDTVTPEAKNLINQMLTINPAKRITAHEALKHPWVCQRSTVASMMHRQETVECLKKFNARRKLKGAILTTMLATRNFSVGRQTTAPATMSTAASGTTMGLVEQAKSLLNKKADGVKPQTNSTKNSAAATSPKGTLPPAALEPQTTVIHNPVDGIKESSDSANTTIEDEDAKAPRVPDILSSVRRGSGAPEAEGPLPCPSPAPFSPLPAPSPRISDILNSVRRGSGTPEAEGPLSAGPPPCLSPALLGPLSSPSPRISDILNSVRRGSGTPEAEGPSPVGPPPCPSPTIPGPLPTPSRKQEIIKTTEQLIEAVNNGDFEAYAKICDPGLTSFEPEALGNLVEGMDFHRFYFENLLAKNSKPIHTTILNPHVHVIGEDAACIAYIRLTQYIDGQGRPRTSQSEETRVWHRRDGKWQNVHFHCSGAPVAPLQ

Sequence of Casein kinase I isoform alpha (Homo sapiens) (P48729 2-337 limits assumed): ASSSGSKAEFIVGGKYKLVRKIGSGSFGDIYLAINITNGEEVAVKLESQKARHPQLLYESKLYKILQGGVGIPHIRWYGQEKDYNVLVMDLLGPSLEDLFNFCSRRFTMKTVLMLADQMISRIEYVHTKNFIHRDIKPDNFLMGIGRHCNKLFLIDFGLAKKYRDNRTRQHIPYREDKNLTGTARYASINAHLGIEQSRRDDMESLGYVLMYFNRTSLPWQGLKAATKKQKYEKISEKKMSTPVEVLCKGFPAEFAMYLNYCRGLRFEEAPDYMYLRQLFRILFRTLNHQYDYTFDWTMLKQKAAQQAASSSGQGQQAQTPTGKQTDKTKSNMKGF
Sequence of ALK tyrosine kinase receptor (Homo sapiens) (Q9UM73 19-1620 limits assumed): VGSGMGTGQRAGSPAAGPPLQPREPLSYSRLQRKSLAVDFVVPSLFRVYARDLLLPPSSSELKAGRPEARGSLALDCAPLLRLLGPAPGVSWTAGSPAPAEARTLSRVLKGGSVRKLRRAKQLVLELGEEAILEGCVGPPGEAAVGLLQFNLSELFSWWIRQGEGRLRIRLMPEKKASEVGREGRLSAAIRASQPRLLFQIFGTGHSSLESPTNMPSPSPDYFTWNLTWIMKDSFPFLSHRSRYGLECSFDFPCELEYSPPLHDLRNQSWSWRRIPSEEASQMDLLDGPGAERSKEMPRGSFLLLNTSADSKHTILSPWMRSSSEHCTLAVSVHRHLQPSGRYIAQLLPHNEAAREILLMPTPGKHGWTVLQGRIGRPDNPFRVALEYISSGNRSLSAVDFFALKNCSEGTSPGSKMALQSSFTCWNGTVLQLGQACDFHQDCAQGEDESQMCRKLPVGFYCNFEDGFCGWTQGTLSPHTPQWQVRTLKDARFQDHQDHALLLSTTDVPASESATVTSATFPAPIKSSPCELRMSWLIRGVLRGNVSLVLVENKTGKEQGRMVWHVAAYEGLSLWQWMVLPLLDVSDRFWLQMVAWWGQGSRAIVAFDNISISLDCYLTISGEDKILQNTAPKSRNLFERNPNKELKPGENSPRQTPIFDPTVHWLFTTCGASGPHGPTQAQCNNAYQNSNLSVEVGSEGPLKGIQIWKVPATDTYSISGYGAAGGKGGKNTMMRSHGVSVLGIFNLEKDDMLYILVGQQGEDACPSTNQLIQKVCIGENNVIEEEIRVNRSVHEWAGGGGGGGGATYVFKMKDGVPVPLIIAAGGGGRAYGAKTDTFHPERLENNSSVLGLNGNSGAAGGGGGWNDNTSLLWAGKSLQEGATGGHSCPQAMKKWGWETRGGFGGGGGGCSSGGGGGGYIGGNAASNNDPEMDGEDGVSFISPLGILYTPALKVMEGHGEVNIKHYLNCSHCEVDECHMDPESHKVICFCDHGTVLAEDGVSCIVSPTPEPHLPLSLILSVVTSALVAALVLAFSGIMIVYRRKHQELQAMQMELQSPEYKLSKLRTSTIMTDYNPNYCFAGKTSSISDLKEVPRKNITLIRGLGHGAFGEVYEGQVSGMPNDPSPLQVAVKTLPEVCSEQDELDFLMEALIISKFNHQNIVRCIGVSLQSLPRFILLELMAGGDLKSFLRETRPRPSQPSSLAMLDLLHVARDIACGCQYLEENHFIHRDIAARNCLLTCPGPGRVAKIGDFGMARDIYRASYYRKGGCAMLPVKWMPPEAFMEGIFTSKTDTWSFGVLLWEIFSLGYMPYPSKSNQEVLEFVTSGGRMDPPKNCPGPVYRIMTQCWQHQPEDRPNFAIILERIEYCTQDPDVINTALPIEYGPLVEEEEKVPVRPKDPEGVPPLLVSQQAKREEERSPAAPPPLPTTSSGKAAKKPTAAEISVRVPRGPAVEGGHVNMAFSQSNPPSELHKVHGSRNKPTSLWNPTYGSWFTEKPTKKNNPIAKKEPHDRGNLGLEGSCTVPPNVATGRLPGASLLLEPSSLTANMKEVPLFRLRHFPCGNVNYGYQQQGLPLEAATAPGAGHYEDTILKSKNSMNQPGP
Sequence of Tyrosine-protein kinase Lyn (P07948 2-512 limits assumed): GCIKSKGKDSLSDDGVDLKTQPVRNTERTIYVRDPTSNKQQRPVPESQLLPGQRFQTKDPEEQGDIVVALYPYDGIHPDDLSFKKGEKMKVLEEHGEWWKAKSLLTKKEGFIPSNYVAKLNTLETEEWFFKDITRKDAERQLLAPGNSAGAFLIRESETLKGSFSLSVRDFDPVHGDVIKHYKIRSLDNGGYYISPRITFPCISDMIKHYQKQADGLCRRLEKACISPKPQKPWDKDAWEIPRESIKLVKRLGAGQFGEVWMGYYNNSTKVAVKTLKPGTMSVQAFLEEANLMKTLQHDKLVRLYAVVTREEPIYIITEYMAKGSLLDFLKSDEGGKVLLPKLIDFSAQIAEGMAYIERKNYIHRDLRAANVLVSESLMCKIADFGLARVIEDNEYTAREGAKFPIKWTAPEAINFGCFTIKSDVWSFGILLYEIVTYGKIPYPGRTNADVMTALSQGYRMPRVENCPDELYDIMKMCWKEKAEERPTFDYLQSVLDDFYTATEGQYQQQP
Sequence of Calcium/calmodulin-dependent protein kinase type II subunit delta (Homo sapiens) (Q13557 whole entry): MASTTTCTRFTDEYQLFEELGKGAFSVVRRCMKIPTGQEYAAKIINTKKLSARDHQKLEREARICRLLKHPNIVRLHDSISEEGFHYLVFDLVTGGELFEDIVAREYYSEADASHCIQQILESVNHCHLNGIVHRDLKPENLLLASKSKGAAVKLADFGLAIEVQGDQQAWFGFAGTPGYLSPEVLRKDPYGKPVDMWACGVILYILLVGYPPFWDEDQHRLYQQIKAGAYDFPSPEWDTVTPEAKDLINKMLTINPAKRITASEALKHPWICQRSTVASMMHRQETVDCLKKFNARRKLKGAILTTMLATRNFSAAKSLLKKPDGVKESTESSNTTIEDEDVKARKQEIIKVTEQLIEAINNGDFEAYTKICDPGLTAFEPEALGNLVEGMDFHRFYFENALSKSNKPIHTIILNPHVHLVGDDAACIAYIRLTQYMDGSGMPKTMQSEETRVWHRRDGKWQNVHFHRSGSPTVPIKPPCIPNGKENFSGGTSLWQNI
Sequence of Membrane-associated tyrosine- and threonine-specific cdc2-inhibitory kinase (Homo sapiens) (Q99640 whole entry): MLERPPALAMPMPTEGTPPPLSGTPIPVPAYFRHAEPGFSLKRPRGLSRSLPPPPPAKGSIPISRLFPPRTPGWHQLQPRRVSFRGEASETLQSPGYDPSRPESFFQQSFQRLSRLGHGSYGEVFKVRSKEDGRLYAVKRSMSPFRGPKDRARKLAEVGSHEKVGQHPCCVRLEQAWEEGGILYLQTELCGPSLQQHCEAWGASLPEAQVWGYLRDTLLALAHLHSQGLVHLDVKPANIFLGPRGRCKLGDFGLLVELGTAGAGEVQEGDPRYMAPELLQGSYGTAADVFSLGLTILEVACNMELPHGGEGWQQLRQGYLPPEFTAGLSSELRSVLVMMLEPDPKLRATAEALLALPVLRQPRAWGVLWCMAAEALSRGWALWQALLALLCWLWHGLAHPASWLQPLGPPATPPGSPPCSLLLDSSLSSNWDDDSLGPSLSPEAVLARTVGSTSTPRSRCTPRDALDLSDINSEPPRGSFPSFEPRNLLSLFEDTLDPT
Sequence of MAP/microtubule affinity-regulating kinase 3 (Homo sapiens) (P27448 whole entry, looked up): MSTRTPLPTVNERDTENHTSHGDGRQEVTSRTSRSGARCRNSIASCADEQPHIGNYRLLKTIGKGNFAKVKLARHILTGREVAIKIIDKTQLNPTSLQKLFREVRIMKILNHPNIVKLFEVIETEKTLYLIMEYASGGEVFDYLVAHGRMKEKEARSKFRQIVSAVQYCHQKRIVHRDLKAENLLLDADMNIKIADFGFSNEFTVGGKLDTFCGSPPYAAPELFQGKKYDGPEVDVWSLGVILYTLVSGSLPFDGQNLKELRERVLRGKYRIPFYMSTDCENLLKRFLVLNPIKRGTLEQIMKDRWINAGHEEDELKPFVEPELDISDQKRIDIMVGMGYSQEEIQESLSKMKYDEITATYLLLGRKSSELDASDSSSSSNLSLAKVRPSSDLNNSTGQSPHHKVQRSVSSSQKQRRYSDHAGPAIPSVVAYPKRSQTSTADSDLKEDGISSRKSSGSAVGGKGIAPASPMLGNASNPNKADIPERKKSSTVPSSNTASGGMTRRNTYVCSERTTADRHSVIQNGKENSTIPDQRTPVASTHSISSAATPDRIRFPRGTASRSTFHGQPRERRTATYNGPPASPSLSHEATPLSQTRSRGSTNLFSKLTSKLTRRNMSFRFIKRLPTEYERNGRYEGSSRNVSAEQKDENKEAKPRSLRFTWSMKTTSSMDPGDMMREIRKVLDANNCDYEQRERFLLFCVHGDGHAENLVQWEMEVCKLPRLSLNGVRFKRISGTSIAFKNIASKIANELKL

## CCN1CCN(Cc2ccc(NC(=O)c3ccc(C)c(Oc4ccnc5[nH]ccc45)c3)cc2C(F)(F)F)CC1
[1]
  inhibition: 14%
[2]
  inhibition: inactive
[3]
  inhibition: 18.9%
[4]
  inhibition: 3.9%
[5]
  inhibition: 48%
[6]
  inhibition: 2.9%
[7]
  percent of control: 0.55%
[8]
  residual activity: 4.8%

## CCN1CCN(Cc2ccc(NC(=O)c3ccc(C)c(/C=C/c4cnc5[nH]ccc5c4OC)c3)cc2C(F)(F)F)CC1
[9]
  inhibition: 68%
[10]
  inhibition: 12.3%
[11]
  % of control: 0.45%
[12]
  residual activity: 100%

## CNc1cc(Oc2cc(C(=O)Nc3cc(N4CCN(C)CC4)cc(C(F)(F)F)c3)ccc2C)ncn1
[13]
  inhibition: 0.7%
